According to the OligoGym collection:
After the bases stand the sugars from the 5' end (letter, count) and the backbone: PS all phosphorothioate, else s phosphorothioate and o phosphodiester by linkage. Methylation of C is not given here. e = 2'-O-(2-methoxyethyl) (MOE); k = constrained ethyl (cEt); d = 2'-deoxy (DNA); m = 2'-O-methyl

Biological target: HSD17B13
Conditions: ASO, HepaRG

Sequence | target mRNA inhibition (1 µM) [%] | further results
GAAATTGATACACCAA (sugars kkdddddddddkekek, PS) | 68 | 
GAAAUTGATACACCAA (sugars k3 d1 m1 d8 k3, PS) | 58 | 
GAACAATATGGGATGA (sugars kkdddddddddkekek, PS) | 49 | 
GAACACTGTCATAAAG (sugars k3 d10 k3, PS) | 43 | 
GAACCAATATGCTCTG (sugars k3 d10 k3, PS) | 61 | 
GAACCGTATTCCCAAC (sugars k3 d10 k3, PS) | 72 | 
GAACCTATGTGTGCAC (sugars k3 d10 k3, PS) | 53 | 
GAAGGATTTCTAGGAT (sugars k3 d10 k3, PS) | 71 | target mRNA inhibition (0.02 µM): 0%; target mRNA inhibition (0.078 µM): 0%; target mRNA inhibition (0.313 µM): 24%; target mRNA inhibition (1.25 µM): 61%; target mRNA inhibition (5 µM): 88%
GAAGTTAGTATAGTTA (sugars k3 d9 k3 e1, PS) | 75 | 
GAAGTTAGTATAGTTA (sugars k3 d10 k3, PS) | 59 | 
GAAGTTCTGATGTCAG (sugars k3 d10 k3, PS) | 0 | 
GAATAGCCATGTAGCT (sugars k3 d10 k3, PS) | 21 | 
GAATATATACTAGGAT (sugars k3 d10 k3, PS) | 5 | 
GAATCCAGATCTGCCC (sugars k3 d10 k3, PS) | 29 | 
GAATCCATTCTATGCA (sugars k3 d10 k3, PS) | 47 | 
GAATGCTACTTGAACA (sugars k3 d1 m1 d8 k3, PS) | 48 | 
GAATGTAAAGGCTGGG (sugars k3 d10 k3, PS) | 42 | 
GACAACCCTTAACAAA (sugars k3 d10 k3, PS) | 24 | 
GACAACTGATGTCCAG (sugars k3 d10 k3, PS) | 12 | 
GACAATGGTTGATAGT (sugars k3 d10 k3, PS) | 67 | 
GACAGGTAATTAATCT (sugars k3 d10 k3, PS) | 60 | 
GACATAACTACTTCAG (sugars k3 d10 k3, PS) | 66 | 
GACATAGACATGTGTT (sugars k3 d10 k3, PS) | 26 | 
GACATGAGGTTTTGAT (sugars k3 d9 k3 e1, PS) | 55 | 

Sequence | target mRNA inhibition (1 µM) [%] | further results
GACCAATATAATCCAA (sugars k3 d10 k3, PS) | 34 | 
GACTAATGCAAGATTT (sugars k3 d10 k3, PS) | 55 | 
GACTTTGAGACTCTTG (sugars k3 d10 k3, PS) | 65 | 
GACTTTTGTTTGTAGC (sugars k3 d10 k3, PS) | 74 | 
GAGATAAAGCTGCCTG (sugars kkdddddddddkekek, PS) | 40 | 
GAGCATAAGTTACCAG (sugars k3 d10 k3, PS) | 61 | 
GAGCATTCATCAGATG (sugars k3 d10 k3, PS) | 64 | 
GAGGTAAGGAATCCCT (sugars k3 d10 k3, PS) | 27 | 
GAGGTATGTCATACTT (sugars k3 d10 k3, PS) | 29 | 
GAGGTTTTGATACCAG (sugars k3 d10 k3, PS) | 59 | 
GAGTAGTGTAAGCTGA (sugars k3 d10 k3, PS) | 80 | target mRNA inhibition (0.02 µM): 12%; target mRNA inhibition (0.078 µM): 12%; target mRNA inhibition (0.313 µM): 51%; target mRNA inhibition (1.25 µM): 69%; target mRNA inhibition (5 µM): 92%
GAGTCGGTCACCTTTC (sugars k3 d9 k3 e1, PS) | 74 | target mRNA inhibition (0.02 µM): 0%; target mRNA inhibition (0.078 µM): 0%; target mRNA inhibition (0.313 µM): 0%; target mRNA inhibition (1.25 µM): 51%; target mRNA inhibition (5 µM): 76%
GAGTCGGTCACCTTTC (sugars k3 d10 k3, PS) | 82 | target mRNA inhibition (0.02 µM): 0%; target mRNA inhibition (0.078 µM): 30%; target mRNA inhibition (0.313 µM): 55%; target mRNA inhibition (1.25 µM): 82%; target mRNA inhibition (5 µM): 82%
GAGTGCATCTTAAGAT (sugars k3 d9 k3 e1, PS) | 34 | 
GAGTGCATCTTAAGAT (sugars kkdddddddddkekek, PS) | 27 | 
GAGTTAGGGAGCCAGC (sugars k3 d10 k3, PS) | 39 | 
GAGTTATACAGAAGAC (sugars k3 d10 k3, PS) | 61 | 
GAGTTGCACCGTTTTG (sugars kkdddddddddkekek, PS) | 61 | 
GATAAAGCTGCCTGCT (sugars k3 d10 k3, PS) | 42 | 
GATACCCAGGTTGCTT (sugars k3 d10 k3, PS) | 53 | 
GATACTGGTGGACAAG (sugars k3 d10 k3, PS) | 13 | 
GATACTTACCAATATG (sugars k3 d10 k3, PS) | 22 | 
GATATGAGTAAAGATC (sugars k3 d10 k3, PS) | 23 | 
GATATTCTGTGGCATG (sugars k3 d10 k3, PS) | 46 | 

Sequence | target mRNA inhibition (1 µM) [%] | further results
GATATTGATATACGAT (sugars k3 d10 k3, PS) | 2 | 
GATATTGTTTAGCTGA (sugars k3 d10 k3, PS) | 59 | 
GATCCATATTCCCTGA (sugars k3 d10 k3, PS) | 74 | target mRNA inhibition (0.02 µM): 0%; target mRNA inhibition (0.078 µM): 0%; target mRNA inhibition (0.313 µM): 21%; target mRNA inhibition (1.25 µM): 40%; target mRNA inhibition (5 µM): 60%
GATCGGCTGGATATAC (sugars k3 d10 k3, PS) | 7 | 
GATCTCTTAGCTGTGC (sugars k3 d9 k3 e1, PS) | 70 | 
GATCUCTTAGCTGTGC (sugars k3 d1 m1 d8 k3, PS) | 65 | 
GATGATTCTGACTCAT (sugars k3 d10 k3, PS) | 55 | 
GATGTGGCCATGATTT (sugars k3 d10 k3, PS) | 9 | 
GATTACCCCTGGCTTT (sugars k3 d10 k3, PS) | 31 | 
GATTAGTCTTGATGTA (sugars k3 d1 m1 d8 k3, PS) | 45 | 
GATTAGTTAACCTTTT (sugars k3 d10 k3, PS) | 58 | 
GATTATTATGTGATTG (sugars k3 d10 k3, PS) | 39 | 
GATTGAATTCACTATC (sugars k3 d10 k3, PS) | 0 | 
GATTGGAATGCTACTT (sugars k3 d1 m1 d8 k3, PS) | 48 | 
GATTTAAAATAGAGTC (sugars k3 d10 k3, PS) | 46 | 
GATTTCTAGGATGATG (sugars k3 d10 k3, PS) | 57 | 
GCAAAAGGAGCCAGTT (sugars k3 d10 k3, PS) | 57 | 
GCAAAGTTAATAGGAC (sugars k3 d10 k3, PS) | 52 | 
GCAAAGTTTGGGCAGA (sugars k3 d10 k3, PS) | 50 | 
GCAAATACAGCAGTAC (sugars k3 d10 k3, PS) | 56 | 
GCAAGCCAACAGAGAG (sugars k3 d1 m1 d8 k3, PS) | 26 | 
GCAATAGTACTATAGT (sugars k3 d10 k3, PS) | 39 | 
GCACATCATGTTTTGC (sugars k3 d10 k3, PS) | 44 | 
